Test results: patent US20140179795A1, “Agent for Stabilizing Acetaminophen” (priority 2010, published 2014)

What was measured:
[1] = Stability under high-temperature and high-pressure conditions (121° C., 1 hour): color tone, precipitation, related substances by HPLC; assay type: physicochemical; parameters: key to Color tone: +++: deep brown; ++: slightly deep brown; +: light brown; ±: very little discoloration; −: no discoloration; key to Precipitation: +: visible precipitates; −: no precipitates; conditions: 1 w/v % acetaminophen, 5 w/v % xylitol, pH 5, 1-hour treatment; for Total amount of related substances (%): HPLC peak area 225 nm
Protocol: Aqueous compositions containing glycine at the concentrations shown in Table 1 below, 1 w/v % acetaminophen, 5 w/v % xylitol and phosphoric acid (q.s.) and having the pH of 5 were heat-treated at 121° C. for 1 hour, and subsequently visually observed in terms of the color tone (the degree of discoloration) and the presence of precipitates.
In addition, the concentration of acetaminophen-related substances in each aqueous composition was determined by HPLC. The HPLC conditions were as follows.
(§1) The analysis was performed using liquid chromatography as described in the purity test of acetaminophen (related substances) prescribed in the manual of the Japanese pharmacopoeia, 15th edition. That is, each solution was subjected to HPLC using an octadecyl silica gel column and a mobile phase prepared by mixing methanol and a potassium dihydrogen phosphate solution, the peak areas at the detection wavelength of 225 nm were determined by an automatic integration method, and the percentage of the summed peak areas of the related substances to the total area of all peaks (total amount of related substances (%)) was calculated.

[2] = Effects of pH on stability under extreme conditions (60° C., 21-day storage); assay type: physicochemical; parameters: key to Color tone: +++: deep brown; ++: slightly deep brown; +: light brown; ±: very little discoloration; −: no discoloration; key to Precipitation: +: visible precipitates; −: no precipitates; conditions: 0.56 w/v % glycine, 0.22 w/v % citric acid, 0.9 w/v % NaCl; for Total amount of related substances (%): HPLC
Protocol: as §1
Aqueous solutions with the pHs shown in Table 4 below were prepared by mixing 1 w/v % of acetaminophen, 0.56 w/v % of glycine, 0.22 w/v % of citric acid, 0.9 w/v % of NaCl, and NaOH or H3PO4 (q.s.). The aqueous solutions were autoclaved at 121° C. for 20 minutes and then stored at 60° C. for 21 days. Subsequently, the aqueous solutions were visually observed in terms of the color tone (the degree of discoloration) and the presence of precipitates. In addition, the concentration of acetaminophen-related substances in each aqueous solution was determined by HPLC.

Color tone ([1]; glycine 0 w/v %): +
Precipitation ([1]; glycine 0 w/v %): −
Total amount of related substances (%) ([1]; glycine 0 w/v %): 0.33%
Color tone ([1]; glycine 0.14 w/v %): −
Precipitation ([1]; glycine 0.14 w/v %): −
Total amount of related substances (%) ([1]; glycine 0.14 w/v %): 0.03%
Color tone ([1]; glycine 0.28 w/v %): −
Precipitation ([1]; glycine 0.28 w/v %): −
Total amount of related substances (%) ([1]; glycine 0.28 w/v %): 0.01%
Color tone ([1]; glycine 0.56 w/v %): −
Precipitation ([1]; glycine 0.56 w/v %): −
Total amount of related substances (%) ([1]; glycine 0.56 w/v %): 0%
Color tone ([2]; pH 2, 1 w/v % acetaminophen): +++
Precipitation ([2]; pH 2, 1 w/v % acetaminophen): +
Total amount of related substances (%) ([2]; pH 2, 1 w/v % acetaminophen): 12.18%
Color tone ([2]; pH 3, 1 w/v % acetaminophen): ++
Precipitation ([2]; pH 3, 1 w/v % acetaminophen): +
Total amount of related substances (%) ([2]; pH 3, 1 w/v % acetaminophen): 5.44%
Color tone ([2]; pH 4, 1 w/v % acetaminophen): ±
Precipitation ([2]; pH 4, 1 w/v % acetaminophen): +
Total amount of related substances (%) ([2]; pH 4, 1 w/v % acetaminophen): 0.8%
Color tone ([2]; pH 5, 1 w/v % acetaminophen): ±
Precipitation ([2]; pH 5, 1 w/v % acetaminophen): −
Total amount of related substances (%) ([2]; pH 5, 1 w/v % acetaminophen): 0.05%
Color tone ([2]; pH 6, 1 w/v % acetaminophen): +
Precipitation ([2]; pH 6, 1 w/v % acetaminophen): −
Total amount of related substances (%) ([2]; pH 6, 1 w/v % acetaminophen): 0.05%
Color tone ([2]; pH 7, 1 w/v % acetaminophen): ++
Precipitation ([2]; pH 7, 1 w/v % acetaminophen): −
Total amount of related substances (%) ([2]; pH 7, 1 w/v % acetaminophen): 0.06%
Color tone ([2]; pH 8, 1 w/v % acetaminophen): +++
Precipitation ([2]; pH 8, 1 w/v % acetaminophen): +
Total amount of related substances (%) ([2]; pH 8, 1 w/v % acetaminophen): 0.07%
SMILES: CC(=O)Nc1ccc(O)cc1 [acetaminophen, N-(4-hydroxyphenyl)acetamide]
